# ChEMBL document CHEMBL1201862, “PubChem BioAssay data set” (2004)
# Activity calls are given as the source filed them.
# How the values were obtained:
# [1] = biological target: T1, Ubiquitin-conjugating enzyme E2 N (Homo sapiens, UniProt P61088); assay type: functional;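 note: Dose-response confirmation in a TR-FRET assay detecting UBC13-driven polyubiquitin chain formation, inhibition measured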
# T1 sequence (P61088 whole entry): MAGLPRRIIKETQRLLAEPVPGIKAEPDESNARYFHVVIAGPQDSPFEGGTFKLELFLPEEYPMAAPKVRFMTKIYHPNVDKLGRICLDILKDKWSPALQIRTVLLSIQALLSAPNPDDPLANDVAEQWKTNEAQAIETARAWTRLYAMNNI
# [2] = biological target: T2, Corticotropin-releasing factor receptor 2/Corticotropin-releasing factor-binding protein (Homo sapiens, UniProt P24387+Q13324); assay: Dose Response confirmation of uHTS hits for small molecule antagonists of the CRF-binding protein and CRF-R2 receptor complex.; assay type: functional; details: read-out: IC50_Mean
# T2 sequence (Q13324 whole entry): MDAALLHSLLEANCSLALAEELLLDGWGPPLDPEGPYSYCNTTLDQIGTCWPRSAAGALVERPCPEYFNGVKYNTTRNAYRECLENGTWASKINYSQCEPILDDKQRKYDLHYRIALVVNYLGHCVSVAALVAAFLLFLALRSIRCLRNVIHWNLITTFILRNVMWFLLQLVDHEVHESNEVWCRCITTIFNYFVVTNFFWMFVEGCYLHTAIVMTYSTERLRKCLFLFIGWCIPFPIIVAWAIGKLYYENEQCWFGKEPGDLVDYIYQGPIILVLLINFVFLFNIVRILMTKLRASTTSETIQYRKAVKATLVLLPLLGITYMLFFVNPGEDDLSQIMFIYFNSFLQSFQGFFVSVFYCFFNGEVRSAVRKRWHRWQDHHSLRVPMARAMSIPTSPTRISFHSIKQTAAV
# T2 sequence (P24387 whole entry): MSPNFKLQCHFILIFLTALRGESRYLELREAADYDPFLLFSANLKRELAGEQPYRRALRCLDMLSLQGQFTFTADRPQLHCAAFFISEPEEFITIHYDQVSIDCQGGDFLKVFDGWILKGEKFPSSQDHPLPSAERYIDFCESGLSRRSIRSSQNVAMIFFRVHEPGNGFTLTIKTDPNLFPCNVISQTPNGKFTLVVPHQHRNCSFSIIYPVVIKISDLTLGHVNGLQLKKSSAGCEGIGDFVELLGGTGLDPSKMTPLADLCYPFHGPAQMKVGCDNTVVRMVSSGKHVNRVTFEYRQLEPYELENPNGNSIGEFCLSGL
# [3] = biological target: T2, Corticotropin-releasing factor receptor 2/Corticotropin-releasing factor-binding protein; assay: activators of CRF receptor 2 with binding protein – uHTS hits, confirmation (AID 602473); assay type: functional; details: read-out: EC50_Mean
# [4] = HEp-2 cell cytotoxicity, dose response, cytotoxicity control for RSV inhibitor project, HTS (AID 2410); assay type: functional; details: human respiratory syncytial virus
# [5] = cytotoxicity toward NIH3T3 fibroblasts, dose response, counter-screen, cell-based, ATP luminescence, mouse fibroblasts (AID 2010); assay type: functional;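 note: cells exposed to compound for about 90 hours before reading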
# [6] = Luminescence Cell-Based Dose Retest to Confirm Inhibitors of Cancer Stem Cells. [Related pubchem assays (depositor defined):AID2717, AID2721]; assay type: functional; details: Homo sapiens
# [7] = biological target: T3, Calpain-2 catalytic subunit (Sus scrofa, UniProt P43367); assay: pig calpain II inhibitor potency, dose response, biochemical, fluorogenic peptide substrate (AID 1420); assay type: functional
# T3 sequence (P43367 whole entry): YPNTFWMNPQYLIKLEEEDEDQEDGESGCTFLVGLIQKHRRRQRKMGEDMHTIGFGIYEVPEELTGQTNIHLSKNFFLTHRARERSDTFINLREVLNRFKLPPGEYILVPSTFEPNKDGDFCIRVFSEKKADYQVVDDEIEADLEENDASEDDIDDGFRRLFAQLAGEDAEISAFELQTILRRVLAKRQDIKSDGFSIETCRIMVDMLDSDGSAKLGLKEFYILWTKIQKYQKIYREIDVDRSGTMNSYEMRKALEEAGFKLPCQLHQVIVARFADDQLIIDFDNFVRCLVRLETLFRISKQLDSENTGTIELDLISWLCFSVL
# [8] = inhibitors of intracellular T. cruzi replication, confirmation, NIH3T3 host cells, beta-gal luminescence (AID 2044); assay type: functional, cell-based;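 note: intracellular parasites grown in NIH/3T3 mouse fibroblasts as host cells; luminescent beta-galactosidase reporter signal from transgenic T. cruzi replicating inside host cells; inhibitors lower the luminescence signal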
# [9] = biological target: T4, Endoribonuclease toxin MazF (Escherichia coli K-12, UniProt P0AE70); assay: fluorescent RNA oligo signal without MazF, dose response, counter-screen for MazEF activator project, biochemical, fluorescence, single-stranded RNase substrate (AID 588502); assay type: functional
# T4 sequence (P0AE70 whole entry): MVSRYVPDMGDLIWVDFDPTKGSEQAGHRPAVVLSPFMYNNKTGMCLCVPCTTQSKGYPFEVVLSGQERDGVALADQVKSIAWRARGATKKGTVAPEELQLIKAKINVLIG
# [10] = biological target: T4, Endoribonuclease toxin MazF; assay: MazF toxin RNase activators, dose response, biochemical, fluorescence, single-stranded RNA substrate, uHTS hits (AID 588481); assay type: functional
# Protein RecA = biological target: T5, Protein RecA (Mycobacterium tuberculosis, UniProt P9WHJ3); assay: Fluorescence Cell-Free Homogeneous Dose Retest to Identify Inhibitors of RecA-Intein Splicing Activity. [Related pubchem assays (depositor defined):AID2097, AID2223, AID489010, AID492950]; assay type: functional
# T5 sequence (P9WHJ3 whole entry): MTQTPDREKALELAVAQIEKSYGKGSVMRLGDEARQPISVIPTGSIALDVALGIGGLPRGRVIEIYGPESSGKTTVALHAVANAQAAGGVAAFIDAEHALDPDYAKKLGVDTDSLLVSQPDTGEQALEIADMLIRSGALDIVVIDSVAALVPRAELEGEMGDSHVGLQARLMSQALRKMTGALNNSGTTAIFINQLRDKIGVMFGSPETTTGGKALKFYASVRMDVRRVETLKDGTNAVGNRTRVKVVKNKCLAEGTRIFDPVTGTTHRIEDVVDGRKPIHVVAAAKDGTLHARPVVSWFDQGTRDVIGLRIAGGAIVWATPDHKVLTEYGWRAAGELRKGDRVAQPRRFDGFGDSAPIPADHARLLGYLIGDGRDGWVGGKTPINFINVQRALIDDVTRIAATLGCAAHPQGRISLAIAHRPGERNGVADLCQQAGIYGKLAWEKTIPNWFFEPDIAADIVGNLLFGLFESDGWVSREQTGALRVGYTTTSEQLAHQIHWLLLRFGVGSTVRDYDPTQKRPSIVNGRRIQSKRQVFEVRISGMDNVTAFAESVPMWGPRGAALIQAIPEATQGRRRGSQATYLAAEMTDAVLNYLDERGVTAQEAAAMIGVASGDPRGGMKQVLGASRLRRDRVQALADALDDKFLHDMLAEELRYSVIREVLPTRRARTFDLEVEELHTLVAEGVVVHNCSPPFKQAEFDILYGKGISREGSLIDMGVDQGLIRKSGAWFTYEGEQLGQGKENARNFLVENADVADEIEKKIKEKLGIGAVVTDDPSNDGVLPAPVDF
# [11] = biological target: T6, Replicative DNA helicase DnaB (Mycobacterium tuberculosis, UniProt P9WMR3); assay: DnaB intein splicing inhibitors, dose response, biochemical, cell-free fluorescence (AID 449749); assay type: functional
# T6 sequence (P9WMR3 whole entry): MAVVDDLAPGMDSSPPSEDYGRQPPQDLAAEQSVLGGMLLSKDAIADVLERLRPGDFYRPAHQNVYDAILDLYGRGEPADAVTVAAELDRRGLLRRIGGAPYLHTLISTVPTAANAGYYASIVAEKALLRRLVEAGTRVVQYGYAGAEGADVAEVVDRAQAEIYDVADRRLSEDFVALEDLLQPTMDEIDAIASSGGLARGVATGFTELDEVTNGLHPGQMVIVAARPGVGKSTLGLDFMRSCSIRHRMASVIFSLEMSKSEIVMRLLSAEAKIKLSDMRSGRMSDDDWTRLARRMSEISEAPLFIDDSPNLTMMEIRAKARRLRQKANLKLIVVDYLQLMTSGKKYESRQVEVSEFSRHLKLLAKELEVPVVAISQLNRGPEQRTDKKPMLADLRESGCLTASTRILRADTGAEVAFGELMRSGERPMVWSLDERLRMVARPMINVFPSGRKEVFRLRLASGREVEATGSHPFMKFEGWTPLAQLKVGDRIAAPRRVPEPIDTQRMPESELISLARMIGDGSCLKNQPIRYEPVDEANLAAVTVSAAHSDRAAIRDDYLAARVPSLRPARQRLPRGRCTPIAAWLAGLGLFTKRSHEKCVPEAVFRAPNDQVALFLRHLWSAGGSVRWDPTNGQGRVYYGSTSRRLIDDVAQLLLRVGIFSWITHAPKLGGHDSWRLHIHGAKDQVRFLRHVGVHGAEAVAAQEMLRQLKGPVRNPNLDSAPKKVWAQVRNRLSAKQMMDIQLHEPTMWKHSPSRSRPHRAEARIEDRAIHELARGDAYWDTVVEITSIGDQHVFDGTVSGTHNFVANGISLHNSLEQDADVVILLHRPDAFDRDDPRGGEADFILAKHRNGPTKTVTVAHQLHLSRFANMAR
# [12] = microbe, parasite or virus in culture; assay type: functional; details: Mycobacterium tuberculosis
# cells [13] = assay type: functional, cell-based
# cells [14] = assay type: functional, cell-based; remark: listed apart in the source
# cells [15] = assay type: functional
# [16] = control 3'UTR Renilla luciferase suppression, dose response, counter-screen for Shn3 inhibitor project, cell-based, Clone20-Shn3RL, cherry-picked (AID 624133); assay type: functional
# [17] = Shn3 3'UTR reporter inhibitors, dose response, cell-based, Clone20 osteoblasts, firefly luciferase, cherry-picked (AID 624132); assay type: functional;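 note: firefly luciferase luminescence from reporter carrying the Shn3 3'UTR in osteoblasts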
structure (smiles),measurement,setting,value
CC(C)COCC(CN(Cc1ccccc1)c1ccccc1)N1CCCC1 (configuration not stated),IC50,[1],> 20 µM (inactive)
CCN(CC)CCN/C(C)=C1\C(=O)NC(=O)N(c2ccccc2OC)C1=O,IC50,[2],> 47.1 µM (inactive)
same,EC50,[3],> 53 µM (inactive)
CCCCN(CC)S(=O)(=O)c1ccc(C(=O)N(CCCN(C)C)c2nc3cc(C)cc(C)c3s2)cc1,CC50,[4],14.9 µM (active)
same,EC50,[5],9.54 µM (active)
same,AC50,[6],6.96 µM (active)
same,IC50,[7],8.03 µM (not active)
same,EC50,[8],0.227 µM (active)
same,IC50,[1],> 20 µM (inactive)
CCN(CC)CCn1c(=O)n(-c2ccc(Cl)cc2)c(=O)c2c3c(sc21)CN(C)CC3,EC50,[9],> 99 µM (inactive)
same,EC50,[10],> 99 µM (inactive)
CCOc1ccc(S(=O)(=O)NCc2cccnc2)cc1C,EC50,Protein RecA,> 380 µM (inactive)
same,AC50,[11],> 380 µM (inactive)
Cc1ccc2[nH]c(=O)c(=NNc3ccccc3)cnc2c1,CC50,[12],> 40 µM (active)
CCC(=O)n1nc(NCc2ccc(OC)c(OC)c2)nc1NCc1ccc(OC)c(OC)c1,EC50,cells [13],> 350 µM (not active)
same,EC50,cells [14],> 350 µM (not active)
Cn1c(SCC(=O)c2ccccc2)nnc1-c1ccco1,EC50,cells [13],> 350 µM (not active)
same,EC50,cells [14],57.5 µM (active)
CC(C)Cn1nc2c3c(ccc2c1O)C(=O)c1ccccc1C3=O,CC50,[12],16.4 µM (active)
Cn1cccc1/C=C1\SC(=O)N(c2ccccc2)C1=O,EC50,[9],32 µM (inactive)
same,EC50,[10],> 99 µM (inactive)
Cc1ccc(S[C@@H](CCN2CC[C@H](C)CCC2=O)c2ccccc2)cc1,EC50,Protein RecA,17.6 µM (active)
same,AC50,[11],5.34 µM (active)
CC1(C)CC2=Nc3nn(-c4ccccc4)c(O)c3C(c3ccc4c(c3)OCO4)C2=C(O)C1 (configuration not stated),EC50,Protein RecA,24 µM (active)
same,AC50,[11],66.1 µM (active)
N#Cc1ccc(COC(=O)CCc2c[nH]c3ccccc23)cc1,IC50,cells [15],1.68 µM (active)
CSc1ccc(C(=O)C2CCCN(Cc3cc4ccccc4[nH]3)C2)cc1 (configuration not stated),IC50,cells [15],13.2 µM (active)
COc1ccc(-c2noc(CCC(=O)NCC3CCN(Cc4cccc(C)c4)CC3)n2)cc1,IC50,[1],> 20 µM (inactive)
Cc1ccc(OCCCCNC2CCCC(C)C2C)c(C)c1 (configuration not stated),CC50,[12],> 40 µM (active)
same,EC50,[5],> 60 µM (not active)
same,EC50,[8],0.778 µM (active)
OC(CN1C2=NCCN2c2ccccc21)c1ccc2c(c1)OCO2 (configuration not stated),IC50,[2],> 47.1 µM (inactive)
same,EC50,[3],> 53 µM (inactive)
CCCn1c(=N)c(C(=O)NCc2ccc3c(c2)OCO3)cc2c(=O)n3cccc(C)c3nc21,CC50,[12],33.9 µM (active)
same,EC50,[5],> 30 µM (not active)
same,EC50,[8],1.67 µM (active)
FC(F)(F)c1ccc2c(c1)NP(=S)(N1CCOCC1)c1nccn1-2 (configuration not stated),EC50,cells [13],> 350 µM (not active)
same,EC50,cells [14],> 350 µM (not active)
CCCOC(=O)NC1C(NC(=O)OCCC)N(C)C(=O)N1C (configuration not stated),EC50,cells [13],> 350 µM (not active)
same,EC50,cells [14],> 350 µM (not active)
COC(=O)CN1C(=O)COc2ccc(S(=O)(=O)NCc3ccc(Cl)cc3)cc21,IC50,[2],> 47.1 µM (inactive)
same,EC50,[3],> 53 µM (inactive)
CC(=O)c1cccc(NC(=O)CN(C)S(=O)(=O)c2cccc3nsnc23)c1,EC50,cells [13],> 350 µM (not active)
same,EC50,cells [14],> 350 µM (not active)
CN(C(=O)COC(=O)c1ccc(F)c(S(=O)(=O)N2CCOCC2)c1)C1CCS(=O)(=O)C1 (configuration not stated),EC50,cells [13],> 350 µM (not active)
same,EC50,cells [14],> 350 µM (not active)
CCCC(=O)NC(=S)Nc1ccc(N2CCN(C(=O)c3cccs3)CC2)cc1,AC50,[16],10.7 µM (active)
same,AC50,[17],10.1 µM (active)
CC(=O)N1CCN(S(=O)(=O)c2cccc(C(=O)NCc3ccc(F)cc3)c2)CC1,IC50,[2],> 47.1 µM (inactive)
same,EC50,[3],> 53 µM (inactive)
COc1ccc(CCNC(=O)c2cccn2C)cc1,IC50,[2],> 47.1 µM (inactive)
same,EC50,[3],> 53 µM (inactive)
COc1ccccc1NC(=O)C1=C(C)Nc2nnnn2C1c1ccncc1 (configuration not stated),AC50,[11],21.2 µM (inconclusive)
Cc1ccc(NC(=O)CCn2cc(C(F)(F)F)ccc2=O)cc1,IC50,[2],> 47.1 µM (inactive)
same,EC50,[3],> 53 µM (inactive)
COc1ccc(/C=N/NS(=O)(=O)c2ccccc2)cc1OC(=O)c1ccc(C)cc1,IC50,[2],> 47.1 µM (inactive)
same,EC50,[3],> 53 µM (inactive)
